Assay results as given in the NIST ThermoML archive (doi:10.1021/je200806n).
Numbers after ± are expanded uncertainties.

Tests used:
[1] = 101.3 kPa, Liquid
[2] = xn = mol fraction of the nth substance listed; settings: 101.3 kPa, Liquid

CCCCCC(C)O (centres undefined) [2-heptanol]
[1]
Settings | mass density [kg/m3] | viscosity [mPa·s]
298.15 K | 813.18 ± 0.55 | 5.023 ± 0.06
303.15 K | 809.26 ± 0.55 | 4.151 ± 0.05
308.15 K | 805.01 ± 0.56 | 3.478 ± 0.042
313.15 K | 801.14 ± 0.56 | 2.852 ± 0.035

CCCCC(C)O (centres undefined) [2-hexanol]
[1]
Settings | mass density [kg/m3] | viscosity [mPa·s]
298.15 K | 810.14 ± 0.55 | 4.101 ± 0.05
303.15 K | 806.13 ± 0.56 | 3.411 ± 0.042
308.15 K | 802.06 ± 0.56 | 2.819 ± 0.035
313.15 K | 797.96 ± 0.57 | 2.219 ± 0.028

CCC(C)O (centres undefined) [butan-2-ol]
[1]
Settings | mass density [kg/m3] | viscosity [mPa·s]
298.15 K | 803.01 ± 0.56 | 3.104 ± 0.038
303.15 K | 798.29 ± 0.57 | 2.597 ± 0.032
308.15 K | 793.57 ± 0.57 | 2.152 ± 0.027
313.15 K | 789.15 ± 0.58 | 1.733 ± 0.022

O=C1CCCCC1 [cyclohexanone]
[1]
Settings | mass density [kg/m3] | viscosity [mPa·s]
298.15 K | 941.91 ± 0.39 | 2.057 ± 0.026
303.15 K | 937.24 ± 0.4 | 1.847 ± 0.023
308.15 K | 932.67 ± 0.4 | 1.694 ± 0.021
313.15 K | 927.72 ± 0.41 | 1.546 ± 0.02

CCCC(C)O (centres undefined) [pentan-2-ol]
[1]
Settings | mass density [kg/m3] | viscosity [mPa·s]
298.15 K | 805.41 ± 0.56 | 3.499 ± 0.043
303.15 K | 801.21 ± 0.56 | 2.801 ± 0.034
308.15 K | 796.64 ± 0.57 | 2.334 ± 0.029
313.15 K | 792.51 ± 0.57 | 1.993 ± 0.025

CCCC(C)O (centres undefined) [pentan-2-ol] + O=C1CCCCC1
[2]
Settings | mass density, 298.15 K [kg/m3] | mass density, 303.15 K [kg/m3] | mass density, 308.15 K [kg/m3] | mass density, 313.15 K [kg/m3] | viscosity, 298.15 K [mPa·s] | viscosity, 303.15 K [mPa·s] | viscosity, 308.15 K [mPa·s] | viscosity, 313.15 K [mPa·s]
x2 = 0 | 805.41 ± 0.56 | 801.21 ± 0.56 | 796.64 ± 0.57 | 792.51 ± 0.57 | 3.499 ± 0.043 | 2.801 ± 0.034 | 2.334 ± 0.029 | 1.993 ± 0.025
x2 = 0.0824 | 815.31 ± 0.55 | 810.99 ± 0.55 | 806.31 ± 0.56 | 801.99 ± 0.56 | 2.631 ± 0.033 | 2.307 ± 0.029 | 1.891 ± 0.024 | 1.596 ± 0.02
x2 = 0.1615 | 825.12 ± 0.53 | 820.69 ± 0.54 | 815.92 ± 0.54 | 811.53 ± 0.55 | 2.178 ± 0.027 | 1.893 ± 0.024 | 1.541 ± 0.02 | 1.285 ± 0.017
x2 = 0.2401 | 835.08 ± 0.52 | 830.58 ± 0.53 | 825.68 ± 0.53 | 821.06 ± 0.54 | 1.822 ± 0.023 | 1.58 ± 0.02 | 1.265 ± 0.016 | 1.056 ± 0.014
x2 = 0.3492 | 849.18 ± 0.5 | 844.64 ± 0.51 | 839.56 ± 0.52 | 834.77 ± 0.52 | 1.465 ± 0.019 | 1.241 ± 0.016 | 1.007 ± 0.013 | 0.838 ± 0.011
x2 = 0.4397 | 861.19 ± 0.49 | 856.51 ± 0.49 | 851.41 ± 0.5 | 846.47 ± 0.51 | 1.277 ± 0.017 | 1.081 ± 0.014 | 0.881 ± 0.012 | 0.75 ± 0.01
x2 = 0.5607 | 877.71 ± 0.47 | 872.97 ± 0.47 | 867.74 ± 0.48 | 862.65 ± 0.49 | 1.191 ± 0.016 | 1.016 ± 0.014 | 0.865 ± 0.012 | 0.771 ± 0.011
x2 = 0.6496 | 890.14 ± 0.45 | 885.41 ± 0.46 | 880.19 ± 0.47 | 875.09 ± 0.47 | 1.23 ± 0.016 | 1.072 ± 0.014 | 0.935 ± 0.013 | 0.848 ± 0.012
x2 = 0.7399 | 903.04 ± 0.44 | 898.27 ± 0.44 | 893.11 ± 0.45 | 888.08 ± 0.46 | 1.354 ± 0.018 | 1.205 ± 0.016 | 1.062 ± 0.014 | 0.982 ± 0.013
x2 = 0.8498 | 919.21 ± 0.42 | 914.43 ± 0.42 | 909.42 ± 0.43 | 904.33 ± 0.44 | 1.597 ± 0.02 | 1.417 ± 0.018 | 1.294 ± 0.017 | 1.194 ± 0.016
x2 = 0.9396 | 932.71 ± 0.4 | 928.12 ± 0.41 | 923.33 ± 0.41 | 917.99 ± 0.42 | 1.855 ± 0.023 | 1.685 ± 0.021 | 1.523 ± 0.019 | 1.388 ± 0.018

CC(C)O [propan-2-ol]
[1]
Settings | mass density [kg/m3] | viscosity [mPa·s]
298.15 K | 781.09 ± 0.59 | 2.055 ± 0.026
303.15 K | 776.57 ± 0.59 | 1.788 ± 0.023
308.15 K | 771.87 ± 0.6 | 1.563 ± 0.02
313.15 K | 767.36 ± 0.6 | 1.378 ± 0.018

CC(C)O [propan-2-ol] + O=C1CCCCC1
[2], x2 = 0
Settings | mass density [kg/m3] | viscosity [mPa·s]
298.15 K | 781.09 ± 0.59 | 2.055 ± 0.026
303.15 K | 776.57 ± 0.59 | 1.788 ± 0.023
308.15 K | 771.87 ± 0.6 | 1.563 ± 0.02
313.15 K | 767.36 ± 0.6 | 1.378 ± 0.018
